Experimental data taken from ChEMBL document CHEMBL1201862, “PubChem BioAssay data set” (2004).
Where “and” joins values, the source holds several entries; their conditions need not be identical. Equal entries are not always repeated. Calls of active or inactive are those of the source. For most assays here, no stated cut-off is given here; in the data, actives have a measured EC50 and inactives only a lower limit.

Tests used:
[1] = molecular target: T1, Heat shock factor protein 1 (Mus musculus, UniProt P38532); assay: enhancement of HSF1-driven luciferase signal – cell-based, NIH3T3, luminescence, dose retest, confirmation (AID 435004); assay type: functional;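 further: stress induced by proteasome inhibitor MG132 added 30 min after compound; luciferase reporter driven by HSF1 response element in NIH3T3 cells; actives raise luminescence as potentiators of the MG132 stress response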
T1 sequence (P38532 whole entry): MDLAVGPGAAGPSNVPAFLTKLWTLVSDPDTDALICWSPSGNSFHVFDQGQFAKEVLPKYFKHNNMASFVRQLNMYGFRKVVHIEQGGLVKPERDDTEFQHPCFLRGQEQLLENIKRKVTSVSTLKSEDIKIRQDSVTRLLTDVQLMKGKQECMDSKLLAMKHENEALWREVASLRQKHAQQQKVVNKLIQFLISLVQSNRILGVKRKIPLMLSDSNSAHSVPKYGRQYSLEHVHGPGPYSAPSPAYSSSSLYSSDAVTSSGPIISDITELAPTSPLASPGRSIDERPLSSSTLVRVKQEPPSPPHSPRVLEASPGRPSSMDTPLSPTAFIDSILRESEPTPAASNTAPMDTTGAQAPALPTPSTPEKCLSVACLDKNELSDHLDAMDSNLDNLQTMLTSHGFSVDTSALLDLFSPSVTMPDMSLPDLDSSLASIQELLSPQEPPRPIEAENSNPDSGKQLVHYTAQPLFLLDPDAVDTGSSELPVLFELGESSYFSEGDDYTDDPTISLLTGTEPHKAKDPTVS

[2] = Luminescence Cell-Based Dose Response HTS to Identify Activators of Luciferase Translation or Activity in H4 […] Cells. [Related pubchem assays: 1829 (Project Summary), 1814 (Primary HTS)]; assay type: functional
H4 = assay: Luminescence Cell-Based Dose Response HTS to Identify Activators of 5'UTR Stem-Loop Driven Prion Protein mRNA Translation in H4 Neuroglioblastoma Cells. [Related pubchem assays: 1829 (Project Summary), 1814 (Primary HTS)]; assay type: functional; details: Homo sapiens
[3] = molecular target: T1, Heat shock factor protein 1; assay: decrease of HSF1-responsive luciferase luminescence – cell-based, NIH3T3, dose retest, confirmation (AID 2382); assay type: functional;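 further: NIH3T3 fibroblasts with HSF1-driven luciferase reporter stressed by proteasome inhibitor MG132; luminescence from HSF1-driven luciferase expression after 8 hours of MG132 stress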
[4] = molecular target: FAD-linked sulfhydryl oxidase ALR (Homo sapiens, UniProt P55789); assay: ALR-catalysed DTT oxidation blockers – biochemical, H2O2 detection, luminescence, cherry-pick, dose response (AID 493248)
Chain of FAD-linked sulfhydryl oxidase ALR (P55789 whole entry): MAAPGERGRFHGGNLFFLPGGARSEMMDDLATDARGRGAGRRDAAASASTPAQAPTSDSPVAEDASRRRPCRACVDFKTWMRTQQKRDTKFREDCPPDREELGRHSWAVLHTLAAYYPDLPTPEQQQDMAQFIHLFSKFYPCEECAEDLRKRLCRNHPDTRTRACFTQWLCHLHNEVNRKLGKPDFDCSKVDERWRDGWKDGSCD

[5] = viability of uninfected HEp-2 cells – cell-based, HTS, cytotoxicity control for RSV inhibitor project, dose response (AID 2410); assay type: functional; details: human respiratory syncytial virus
[6] = Luminescence Cell-Based Dose Confirmation HTS to Identify Activators of 5'UTR Stem-Loop Driven Alpha-Synuclein mRNA Translation in H4 Neuroglioblastoma Cells. [Related pubchem assays: 1829 (Project Summary), 1814 (Primary HTS)]; assay type: functional
Cytochrome P450 2C9 = Cytochrome P450 2C9 (Homo sapiens, UniProt P11712)
Chain of Cytochrome P450 2C9 (P11712 whole entry): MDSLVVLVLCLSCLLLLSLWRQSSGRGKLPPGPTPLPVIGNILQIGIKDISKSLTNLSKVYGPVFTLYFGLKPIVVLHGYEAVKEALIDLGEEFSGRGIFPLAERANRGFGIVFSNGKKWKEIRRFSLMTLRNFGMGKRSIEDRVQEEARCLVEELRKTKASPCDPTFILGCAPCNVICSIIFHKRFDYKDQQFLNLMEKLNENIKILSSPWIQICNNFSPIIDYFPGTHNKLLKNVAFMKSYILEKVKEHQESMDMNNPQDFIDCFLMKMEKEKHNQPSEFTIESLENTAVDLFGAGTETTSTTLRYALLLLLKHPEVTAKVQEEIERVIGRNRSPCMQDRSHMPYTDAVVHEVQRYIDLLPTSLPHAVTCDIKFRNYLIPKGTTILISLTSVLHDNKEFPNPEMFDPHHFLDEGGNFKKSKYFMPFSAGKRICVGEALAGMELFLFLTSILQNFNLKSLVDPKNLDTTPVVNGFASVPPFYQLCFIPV

Cytochrome P450 2D6 = Cytochrome P450 2D6 (Homo sapiens, UniProt P10635);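 further: CYP2D6 member of a cytochrome P450 panel assay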
Chain of Cytochrome P450 2D6 (P10635 whole entry): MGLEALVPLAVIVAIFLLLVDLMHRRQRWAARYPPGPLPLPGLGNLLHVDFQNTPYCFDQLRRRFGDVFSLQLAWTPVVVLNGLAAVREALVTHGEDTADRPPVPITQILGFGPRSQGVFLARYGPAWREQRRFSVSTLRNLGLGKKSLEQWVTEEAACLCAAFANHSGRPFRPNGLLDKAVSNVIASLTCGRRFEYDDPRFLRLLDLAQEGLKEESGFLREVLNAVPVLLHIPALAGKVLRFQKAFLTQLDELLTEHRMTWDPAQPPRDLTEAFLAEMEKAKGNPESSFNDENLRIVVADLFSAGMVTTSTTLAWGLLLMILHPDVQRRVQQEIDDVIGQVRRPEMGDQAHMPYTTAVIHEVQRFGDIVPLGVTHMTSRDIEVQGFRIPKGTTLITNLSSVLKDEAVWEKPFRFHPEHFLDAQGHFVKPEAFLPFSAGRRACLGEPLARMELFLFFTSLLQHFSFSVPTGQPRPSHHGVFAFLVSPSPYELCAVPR

Cytochrome P450 3A4 = Cytochrome P450 3A4 (Homo sapiens, UniProt P08684);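 further: CYP3A4 tested as one member of a cytochrome P450 panel screen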
Chain of Cytochrome P450 3A4 (P08684 whole entry): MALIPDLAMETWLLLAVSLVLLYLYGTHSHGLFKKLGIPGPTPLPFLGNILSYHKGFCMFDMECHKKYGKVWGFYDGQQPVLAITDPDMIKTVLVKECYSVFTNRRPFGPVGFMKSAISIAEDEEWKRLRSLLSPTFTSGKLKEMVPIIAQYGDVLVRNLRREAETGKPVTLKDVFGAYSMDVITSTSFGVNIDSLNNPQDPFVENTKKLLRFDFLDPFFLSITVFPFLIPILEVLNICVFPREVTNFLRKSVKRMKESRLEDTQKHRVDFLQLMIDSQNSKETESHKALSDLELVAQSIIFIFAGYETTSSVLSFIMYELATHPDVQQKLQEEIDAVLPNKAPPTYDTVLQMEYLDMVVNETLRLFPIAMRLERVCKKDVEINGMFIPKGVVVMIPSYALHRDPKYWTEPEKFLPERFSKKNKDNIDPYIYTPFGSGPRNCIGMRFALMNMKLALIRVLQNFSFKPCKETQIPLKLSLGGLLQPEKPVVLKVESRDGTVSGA

[7] = Luminescence Cell-Based Dose Retest to Confirm Inhibitors of Cancer Stem Cells. [Related pubchem assays (depositor defined):AID2717, AID2721]; assay type: functional, Homo sapiens; details: Homo sapiens
[8] = Trypanosoma cruzi growth suppression in host cells – NIH3T3 host cells, beta-gal luminescence, confirmation (AID 2044); assay type: functional, cell-based;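 further: intracellular parasites grown in NIH/3T3 mouse fibroblasts as host cells; luminescent beta-galactosidase reporter signal from transgenic T. cruzi replicating inside host cells; inhibitors lower the luminescence signal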
[9] = NIH3T3 cell viability loss – ATP luminescence, mouse fibroblasts, counter-screen, dose response (AID 2010); assay type: functional, cell-based; details: NIH3T3;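 further: cells exposed to compound for about 90 hours before reading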
[10] = Luminescence Cell-Based Dose Response HTS to Identify Inhibitors of 5'UTR Stem-Loop Driven Prion Protein mRNA Translation in H4 Neuroglioblastoma Cells. [Related pubchem assays: 1827 (Project Summary), 1813 (Primary HTS)]; assay type: functional
[11] = luciferase reporter signal suppression in cells – H4 neuroglioma cells, luminescence, dose response (AID 1990); assay type: functional, cell-based
[12] = alpha-synuclein stem-loop luciferase translation blockers – H4 neuroglioma cells, luminescence, confirmation (AID 1988); assay type: functional, cell-based

CCN(CC(=O)Nc1cccc(OC)c1)CC(=O)Nc1ccc(Br)c(C)c1
EC50 [1]: 61.1 µM (active)

O=C(Nc1ccccc1)OCCOc1ccccc1
EC50 [2]: 30.2 µM (active)
EC50 (H4): 93.6 µM (active)
EC50 [3]: > 195 µM (not active)

COc1ccc(Nc2cccc(Cl)c2)c(C(=O)O)c1
AC50 [4]: 2.02 µM (active)
CC50 [5]: 25.3 µM (active)

N#Cc1cc(Cl)c(NCC2CCCO2)cc1C#N (stereo not given)
EC50 [1]: > 260 µM (inactive)
CC50 [5]: 20.9 µM (active)

CCCCn1c(N(CCOC(C)=O)C(C)=O)nc2ccccc21
EC50 [3]: > 195 µM (not active)

COc1cc(OC)c2ccc(=O)oc2c1C(CCN1CCCC1)c1ccc(N(C)C)cc1 (stereo not given)
AC50 [4]: 3.33 µM (active)

COc1ccc(C)cc1-n1c(SCC(=O)Nc2cccc(C(=O)O)c2)nc2ccccc2c1=O
EC50 [1]: > 260 µM (inactive)

CSc1nccn1C(=O)c1ccccc1[N+](=O)[O-]
EC50 [3]: > 195 µM (not active)

Cc1ccccc1N(CC(=O)NC1CCCC1)C(=O)c1csnn1
EC50 [6]: > 120 µM (not active)
EC50 [2]: > 120 µM (not active)
EC50 (H4): > 120 µM (not active)

O=c1c2c3c(sc2nc(NCCOCCO)n1Cc1ccco1)CCCCC3
EC50 [3]: > 195 µM (not active)

Cc1ccc(C(=O)CSc2cnc3ccccc3n2)cc1C
EC50 [3]: 4.3 µM (active)

COc1ccccc1Nc1ccc2nonc2c1[N+](=O)[O-]
EC50 [3]: > 195 µM (not active)

Cc1cc(Nc2cccc(Cl)c2)nc(-c2ccccc2O)n1
EC50 [3]: > 195 µM (not active)

CC(C)C[C@H]1C(=O)N2CCC[C@@H]2[C@]2(O)O[C@](NC(=O)[C@H]3C=C4c5cccc6[nH]c(Br)c(c56)C[C@H]4N(C)C3)(C(C)C)C(=O)N12
AC50 (Cytochrome P450 2C9): 12.6 µM (inconclusive) and 15.8 µM (inconclusive)

COn1c(SC(C)C)nc2ccccc2c1=O
AC50 (Cytochrome P450 2C9): 17.8 µM (inconclusive)

Cc1ccccc1Nc1nnc(C)c(O)n1
EC50 [1]: > 260 µM (inactive)

CCCNC(=O)Nc1ccc(C)cc1C
EC50 [1]: > 260 µM (inactive)

Nc1ccc(CCc2nc3ccccc3o2)cc1
AC50 [4]: 1.16 µM (active)

COc1cc2c(cc1OC)CN(c1ccc([N+](=O)[O-])cc1C#N)CC2
AC50 [4]: > 100 µM (inactive)

CCc1ccccc1NS(=O)(=O)c1cc2c3c(c1)CCN3C(=O)CC2
EC50 [1]: > 260 µM (inactive)

COc1cc(NC(=O)Nc2cccc(C(C)=O)c2)cc(OC)c1OC
AC50 [4]: 1.72 µM (active)

Cc1ccc(N/C([S-])=C(/C(=O)c2ccc(C)c([N+](=O)[O-])c2)[n+]2ccccc2)cc1C
AC50 (Cytochrome P450 2D6): 25.1 µM (inconclusive)
EC50 [6]: 2.37 µM (active)
EC50 [2]: 16.1 µM (active)
AC50 (Cytochrome P450 3A4): 11.2 µM (inconclusive)
EC50 (H4): 46.6 µM (active)

CCOc1ccc(S(=O)(=O)N2CCN=C2c2ccccc2)cc1
AC50 [7]: 3.19 µM (active)

O=C(N1CCOCC1)C12CCC3CC(CC(C3)C1)C2
EC50 [3]: > 195 µM (not active)

N#Cc1c(NC(=O)CSc2nnc(-c3ccccc3)o2)sc2c1CCCC2
EC50 [1]: > 260 µM (inactive)

CCN(CC)CCN1C(=O)C(O)=C(C(=O)c2ccc(OC(C)C)cc2)C1c1cccs1 (stereo not given)
EC50 [6]: 15.7 µM (active)
EC50 [2]: 20.1 µM (active)
EC50 (H4): 35 µM (active)

COc1ccccc1-c1nnc(S)n1Cc1ccccc1
AC50 [4]: 3.09 µM (active)

COc1cc(NC(=S)NC(=O)c2c(OC)cccc2OC)ccc1NC(=O)c1cccs1
AC50 (Cytochrome P450 2C9): 1.41 µM (inconclusive)

N#CCCn1c(=O)c(-c2cc(F)cc(F)c2)nc2cnc(Oc3cccc(Cl)c3)nc21
AC50 (Cytochrome P450 3A4): 10 µM (inconclusive)
AC50 (Cytochrome P450 2C9): 7.94 µM (inconclusive)

Sc1nnc(Cc2noc3ccccc23)n1-c1ccccc1
AC50 [4]: 5.61 µM (active)

O=C(Nc1cnn(C23CC4CC(CC(C4)C2)C3)c1)c1cc(-c2ccccc2)on1
EC50 [8]: 1.55 µM (active)
AC50 [7]: 0.296 µM (active)
EC50 [9]: > 60 µM (not active)

CCCCN(CCCNc1[nH]cnc2ncnc1-2)c1ccccc1
AC50 [4]: 0.108 µM (active)

Cn1c(-c2ccsc2)c(-c2cccs2)c2cc(-c3ccc4[nH]ccc4c3)ccc21
AC50 [7]: 9.76 µM (active)

CCOC(=O)C1CCN(C(=O)CCS(=O)(=O)c2ccc3c(c2)CC(C)N3C(=O)CC)CC1 (stereo not given)
EC50 [3]: > 195 µM (not active)

Cc1cc2oc(C(=O)Nc3c(C)n(C)n(-c4ccccc4)c3=O)c(C)c2cc1C
EC50 [6]: 46.1 µM (active)
EC50 [2]: > 120 µM (not active)
EC50 (H4): > 120 µM (not active)

COc1ccc(C2C=C(C)Nc3ncnn32)cc1 (stereo not given)
EC50 [6]: 19.2 µM (active)
EC50 [2]: 50.5 µM (active)
EC50 (H4): > 120 µM (not active)

CCCC(NC(=O)COc1cc2c(c3oc(=O)cc(C)c13)CCC(C)(C)O2)C(=O)O (stereo not given)
EC50 [3]: > 195 µM (not active)

O=C(Cn1cnc2c(cnn2-c2ccccc2)c1=O)NCc1ccccc1
EC50 [6]: 8.08 µM (active)
EC50 [2]: 9.72 µM (active)
EC50 (H4): 89.8 µM (active)

O=C(CCCc1ccccc1)Nc1ccc2c(c1)OCCO2
EC50 [1]: 32.2 µM (active)

CCN(CC)S(=O)(=O)c1cccc(C(=O)OCC(=O)N2CC(=O)Nc3ccccc32)c1
EC50 [1]: > 260 µM (inactive)

N#C/C(=C/c1ccc(N2CCCCC2)o1)c1cccc(F)c1
EC50 [6]: 0.141 µM (active)
EC50 [2]: 0.355 µM (active)
EC50 [8]: 3.55 µM (active)
EC50 (H4): 16.5 µM (active)
EC50 [9]: > 60 µM (not active)

N#Cc1cccn1-c1nccs1
EC50 [3]: > 195 µM (not active)

COc1ccc(CSC2=NCCN2)cc1Cl
AC50 [4]: 0.021 µM (active)

COc1cccc(NC(=O)Nc2nnc(Cc3ccccc3F)s2)c1
EC50 [3]: > 195 µM (not active)

COc1cc(Cl)c(C)cc1NC(=O)CNC(=O)Cn1cnc2ccccc2c1=O
AC50 (Cytochrome P450 2C9): 10 µM (inconclusive)

c1ccc(-c2nnsc2Sc2ccccn2)cc1
EC50 [6]: 18.3 µM (active)
EC50 [2]: 11.7 µM (active)
EC50 (H4): 16.3 µM (active)

CC(OC(=O)CN1C(=O)c2ccccc2C1=O)C(=O)NC1CCCCC1C (stereo not given)
EC50 [3]: > 195 µM (not active)

[O-][n+]1onc2c1CCc1nnccc1-2
EC50 [6]: 11.4 µM (active)
EC50 [2]: 8.72 µM (active)
EC50 (H4): > 120 µM (not active)

COc1ccc(OC)c(-c2csc(NC(=O)C3=NN(c4ccccc4)C(=O)CC3)n2)c1
EC50 [6]: > 120 µM (not active)
EC50 [2]: > 120 µM (not active)
EC50 (H4): > 120 µM (not active)

CCN1CC(CN(C)Cc2nc(COc3ccccc3)no2)CC1=O (stereo not given)
EC50 [1]: > 260 µM (inactive)

COc1ccc(N2CCN(CC(=O)Nc3ccc(C)cc3)CC2)cc1
AC50 [4]: 3 µM (active)

CCCCOc1ccc(S(=O)(=O)N2CCN(c3ccc(N4CCN(CC)CC4)nn3)CC2)cc1
AC50 [7]: < 0.16 µM (active)

COc1ccc(OC)c(CNc2ccc3c(c2)nc(C)n3C)c1
AC50 [4]: 5.53 µM (active)

O=C(Nc1ccc(S(=O)(=O)N2CCCCC2)cc1)C1CCN(C(=O)c2ccco2)CC1
EC50 [1]: > 260 µM (inactive)

COc1ccc(SCC2CN(C)CCC2c2ccc(F)cc2)cc1 (stereo not given)
EC50 [1]: > 260 µM (inactive)

O=C(O)c1ccc(N/N=C/c2cn(-c3ccccc3)nc2-c2cccs2)cc1
AC50 [4]: 3.74 µM (active)

CC(=O)/C(=N/Nc1ccc(Br)cc1)N1CCCc2ccccc21
EC50 [1]: 113 µM (active)
EC50 [10]: > 120 µM (not active)
EC50 [11]: > 120 µM (not active)
CC50 [5]: 12.8 µM (active)
EC50 [12]: 14.5 µM (active)

CCOC(=O)c1cc(CC)sc1NC=C1C(=O)CCCC1=O
EC50 [3]: > 195 µM (not active)

C=CCN1/C(=N/C(=O)CC)SC2CS(=O)(=O)CC21 (stereo not given)
AC50 (Cytochrome P450 2C9): 11.2 µM (inconclusive)

CCOC(=O)c1c(NC(=O)c2ccccc2)sc2c(O)c(CN(CC)CC)ccc12
EC50 [3]: > 195 µM (not active)
